# Several values for one entry are separate records, joined by “and”; a condition that tells them apart may be missing. Equal values may be shown once.
# Tests used:
# [1] = molecular target: V30M transthyretin mutation, tetrameric transthyretin (Homo sapiens, UniProt P02766, V50M); assay: Immuno-turbidimetric assay 1 on pooled plasma from familial amyloid polyneuropathy patients; format: biochemical; conditions: urea 24, 31 or 36, or 48 hours; 22 mg/dL transthyretin; FIG. 9
# Procedure: The Y-axis represents the percentage of the initial (“Fraction of initial”) transthyretin tetramer concentration remaining in each sample following treatment with urea.
# The samples were then subjected to denaturation for 24, 31 or 36, or 48 hours and then cross-linked (as above).
# tetrameric transthyretin [2] = molecular target: T1, tetrameric transthyretin (Homo sapiens, UniProt P02766); assay: Immuno-turbidimetric assay 1: plasma + compound, 4.8 M urea, glutaraldehyde cross-linking, Olympus OSR6175 reagent; conditions: for Normalized (mg/dL) transthyretin tetramer concentration: 7.2 μM compound, 40 mM glutaraldehyde
# Procedure: Next, the immuno-turbidity assay was evaluated in human plasma samples containing transthyretin and in the presence and absence of a test compound 2-(2,6-dichloro-phenyl)-benzoxazole-6-carboxylic acid (a transthyretin stabilizing compound, see Published U.S. Application No. 20040152140). A 1 mL plasma sample was incubated with 1 μL of 2-(2,6-Dichloro-phenyl)-benzoxazole-6-carboxylic acid (solubilized in dimethyl sulfoxide (DMSO), or a control solution containing only DMSO, for 15 minutes at room temperature. The final test concentration of 2-(2,6-dichloro-phenyl)-benzoxazole-6-carboxylic acid (Cmp. 1) was 7.2 μM. Experimental (with compound) or control (only DMSO) samples were then each combined with 1.5 mL of 8 M urea to a final urea concentration of 4.8 M. A 1 mL aliquot was removed immediately (no incubation (no-inc)) for cross-linking and the remaining 1.5 mL mixture was incubated for 3 days at room temperature (3 day). Immediately for the no-inc 1 mL aliquot or following the 3 day incubation for the 3 day samples, 1 mL of the samples was cross-linked by adding 16 L of 25% (2.5 M) glutaraldehyde in water to a final concentration of 40 mM. The mixtures were incubated for 4 minutes at room temperature. The cross-linking reaction was stopped by the addition of 54 μL of 1.85 M freshly prepared sodium borohydride in 0.1 N sodium hydroxide, followed by a 5 minute incubation at room temperature. For analysis, the OSR6175 reagent was added to sample per manufacturer's instructions, and the turbidity, as a measure of the difference between incident and transmitted light, was calculated per manufacturer instruction.
# To test the effect of different dosages of 2-(3,5-dichloro-phenyl)-benzoxazole-6-carboxylic acid (Cmp. 2) on transthyretin stabilization, plasma samples (a pool from 20 individual donors) containing 4.3 M transthyretin were treated with 2.2 μM, 4.3 μm, or 8.6 μm Cmp. 2, or DMSO as a negative control, for 15 minutes at room temperature. Following the incubation, the urea denaturant was added to the samples resulting in a final urea concentration of 4.8 M (see FIG. 6). As above, aliquots were removed immediately (day 0) and after incubation at room temperature for 1, 2, and 3 days. Cross-linking (glutaraldehyde) and detection of transthyretin using the Olympus OSR6175 reagent were performed as described under Example 1. For each concentration of Cmp. […]
# Since the concentration of transthyretin fluctuates from day to day in an individual subject and can vary between different subjects (e.g., different patients), the efficacy of Cmp. […] Samples were then subjected to denaturation and cross-linking, and stabilized tetrameric transthyretin was measured as described above in Examples 1 and 3.
# tetrameric transthyretin [3] = molecular target: T1, tetrameric transthyretin; assay: Immuno-turbidimetric assay 2: plasma + compound, urea, no cross-linking (dilution or immediate detection); conditions: for Stabilization of transthyretin tetramer (in words): 7.2 μM, urea for 3 days, Table 2; for Stabilization of transthyretin tetramer (in words) / Olympus Normalized / Beckman Normalized: human plasma; for Olympus Normalized / Beckman Normalized: 7.2 μM compound, 4.8 M urea; for Olympus Normalized: Olympus reagent; for Beckman Normalized: Beckman reagent
# Procedure: In this second assay, the cross-linking step is replaced with a step of terminating denaturation (caused by the urea treatment) by dilution of the sample. Briefly, a 1 ml sample of human plasma was combined with either 1 μl of a test compound (Cmp. 1: 2-(2,6-dichloro-phenyl)-benzoxazole-6-carboxylic acid or Cmp. 2: 2-(3,5-dichloro-phenyl)-benzoxazole-6-carboxylic acid; see Published U.S. Application No. 20040152140) solubilized in DMSO or a control solution of DMSO, and the samples were incubated for 15 minutes at room temperature prior to addition of urea. The final concentration of the test compounds was 7.2 μM in DMSO. A solution of urea was added such that the final concentration of urea in the sample was 4.8 M. A 1 mL aliquot was removed immediately (no incubation (no-inc)) for dilution (see below) and the remaining 1.5 mL mixture was incubated for 3 days at room temperature (3 day) (FIG. 3). Immediately (for the no-inc) or following the three day incubation (for the 3 day samples), the samples were diluted 1:5 (four volumes diluent were added per one volume equivalent of sample). Potassium chloride (KCl) and sodium phosphate (NaPO4) were also added to the samples at final concentrations of 50 mM and 25 mM, respectively.
# 2 was also monitored using immuno-turbidimetric assay 2 (Example 2). Plasma samples (a pool from 16 individual donors) containing 4.6 μM transthyretin were treated with 4.6 μm, or 9.2 μm Cmp. 2, or DMSO as a negative control, for 15 minutes at room temperature. Following the incubation, urea was added to the samples resulting in a final urea concentration of 3.2 M (see FIG. 7). Aliquots were removed immediately (day 0) and after incubation at room temperature for 8, 13, 24, 32, and 48 hours. Immediate detection of transthyretin using the Bayer ADVIA prealbumin kit was performed as described by the manufacturer. For each concentration of Cmp. 2, the assay-determined transthyretin concentration at 8, 13, 24, 32, and 48 hours was divided by the assay-determined initial concentration at day 0 to yield the percent of tetramer remaining (FIG. 7).
# tetrameric transthyretin [4] = molecular target: T1, tetrameric transthyretin; assay: Western blotting method (urea, cross-linking, SDS-PAGE, anti-transthyretin immunoblot) of plasma samples; format: biochemical; parameters: human plasma samples containing transthyretin; from tissue; host or cells: human plasma (single samples or pools of donors); conditions: 7.2 μM, 3 day urea treatment, FIG. 4B
# From the text: The position of transthyretin tetramer on the immunoblot is indicated at the left of the immunoblot, and the time point at which the samples were collected for assay (0 or 3 days) are indicated above the immunoblot.
Stabilization of tetrameric transthyretin in V30M patient plasma [1],"Dose dependence of tetramer stabilization (percent of tetramer remaining) (tetrameric transthyretin [2]; 2.2, 4.3, 8.6 μM, 4.8 M urea, days 1, 2, 3, pooled plasma, FIG. 6)",Stabilization of transthyretin tetramer (in words) (tetrameric transthyretin [3]),"Dose dependence of tetramer stabilization (percent of tetramer remaining) (tetrameric transthyretin [3]; 4.6 or 9.2 μM, 3.2 M urea, 8-48 hours, Bayer ADVIA prealbumin kit, pooled plasma, FIG. 7)",Olympus Normalized (tetrameric transthyretin [3]; Day 0),Olympus Normalized (tetrameric transthyretin [3]; Day 3),"Stabilization of tetrameric transthyretin (in words) (tetrameric transthyretin [2]; 7.2 μM, three-day 4.8 M urea treatment, human plasma)","Normalized (mg/dL) transthyretin tetramer concentration (tetrameric transthyretin [2]; Day 0 (no incubation), 4.8 M urea, human plasma)","Normalized (mg/dL) transthyretin tetramer concentration (tetrameric transthyretin [2]; Day 3 in 4.8 M urea, human plasma)",Stabilization of tetrameric transthyretin by western blot (in words) (tetrameric transthyretin [4]),Beckman Normalized (tetrameric transthyretin [3]; Day 0),Beckman Normalized (tetrameric transthyretin [3]; Day 3),Compound
stabilized in a dose-dependent manner,more effective than lower concentrations,significantly stabilized,more effective than lower concentrations,22.12 mg/dL and 23.72 mg/dL,13.59 mg/dL,,,,,,,O=C(O)c1ccc2nc(-c3cc(Cl)cc(Cl)c3)oc2c1 [Cmp. 2]
,,almost completely stabilized,,22.12 mg/dL,23.45 mg/dL,nearly completely stabilized,23.5 mg/dL,21.9 mg/dL,almost completely stabilized,10.53 mg/dL,12.26 mg/dL,O=C(O)c1ccc2nc(-c3c(Cl)cccc3Cl)oc2c1 [Cmp. 1]
